Data from US10988466B2, “Heterocyclic derivatives useful as SHP2 inhibitors” (Jacobio Pharmaceuticals Co., Ltd., priority 2017, dated 2021).

Molecular target: T1, SHP2 (Homo sapiens, UniProt Q06124)
T1 sequence (Q06124 1-593): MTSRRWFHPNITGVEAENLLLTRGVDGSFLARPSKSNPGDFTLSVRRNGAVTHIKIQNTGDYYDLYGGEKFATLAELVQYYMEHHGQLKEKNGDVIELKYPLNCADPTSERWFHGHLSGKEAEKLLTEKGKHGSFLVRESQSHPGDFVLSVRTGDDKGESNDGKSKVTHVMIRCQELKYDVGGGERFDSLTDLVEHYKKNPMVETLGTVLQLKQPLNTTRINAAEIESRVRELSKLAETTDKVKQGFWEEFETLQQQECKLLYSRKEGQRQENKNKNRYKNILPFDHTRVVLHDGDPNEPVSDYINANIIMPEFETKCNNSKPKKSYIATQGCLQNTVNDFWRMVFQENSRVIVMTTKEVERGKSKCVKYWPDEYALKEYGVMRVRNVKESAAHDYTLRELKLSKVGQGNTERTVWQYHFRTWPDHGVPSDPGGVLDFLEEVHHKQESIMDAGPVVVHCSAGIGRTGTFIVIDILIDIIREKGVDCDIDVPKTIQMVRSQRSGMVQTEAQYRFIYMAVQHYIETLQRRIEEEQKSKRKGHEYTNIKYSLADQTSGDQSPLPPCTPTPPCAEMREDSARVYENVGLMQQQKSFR
Test: biochemical
Conditions: read-out: SHP2 inhibition (%)@0.1 μM
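Note: compounds preincubated 30 min at room temperature in the assay mixture, activity referenced to a 0.5% (v/v) DMSO control taken as 100%, run in triplicate.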

Row | Compound | inhibition at 0.1 µM
1 | Nc1nc(N2CCC3(CC2)Cc2ccc(F)c(F)c2[C@H]3N)cnc1Sc1ccnc(N)c1Cl [Example 40, (S)-1′-(6-amino-5-((2-amino-3-chloropyridin-4-yl)thio)pyrazin-2-yl)-6,7-difluoro-1,3-dihydro-spiro[indene-2,4′-piperidin]-1-amine] | 74%
2 | CP(C)(=O)c1cc2c(cc1F)CC1(CCN(c3cnc(Sc4ccnc(N)c4Cl)c(N)n3)CC1)[C@@H]2N [Example 41, (S)-(1-amino-1′-(6-amino-((2-amino-3-chloropyridin-4-yl)thio)pyrazin-2-yl)-5-fluoro-1,3-dihydrospiro[indene-2,4′-piperidin]-6-yl) dimethylphosphine oxide] | 69%
3 | N#Cc1cc2c(cc1F)CC1(CCN(c3cnc(Sc4ccnc(N)c4Cl)c(N)n3)CC1)[C@@H]2N [Example 42, (S)-1-amino-1′-(6-amino-5-((2-amino-3-chloropyridin-4-yl)thio)pyrazin-2-yl)-5-fluoro-1,3-dihydro-spiro[indene-2, 4′-piperidine]-6-carbonitrile] | 49%
4 | NC(=O)c1cc2c(cc1F)CC1(CCN(c3cnc(Sc4ccnc(N)c4Cl)c(N)n3)CC1)[C@@H]2N [Example 43, (S)-1-amino-1′-(6-amino-5-((2-amino-3-chloropyridin-4-yl)thio)pyrazin-2-yl)-5-fluoro-1,3-dihydro-spiro[indene-2, 4′-piperidine]-6-carboxamide] | 79%
5 | NC(=O)Nc1ccc2c(c1)[C@@H](N)C1(CCN(c3cnc(Sc4ccnc(N)c4Cl)c(N)n3)CC1)C2 [Example 46, (S)-1-(1-amino-1′-(6-amino-5-((2-amino-3-chloropyridin-4-yl)thio)pyrazin-2-yl)-1,3-dihydrospiro [indene-2,4′-piperidin]-6-yl)urea] | 69%
6 | Nc1nc(N2CCC3(CC2)Cc2cc(Br)ccc2[C@H]3N)cnc1Sc1ccnc(N)c1Cl [Example 47, (S)-1′-(6-amino-5-((2-amino-3-chloropyridin-4-yl)thio)pyrazin-2-yl)-5-bromo-1,3-dihydro-spiro[indene-2,4′-piperidin]-1-amine] | 81%
7 | Nc1nccc(Sc2cnc(N3CCC4(CC3)Cc3ccccc3[C@H]4N)cn2)c1Cl [Example 48, (S)-1′-(5-((2-amino-3-chloropyridin-4-yl)thio)pyrazin-2-yl)-1,3-dihydro-spiro[indene-2,4′-piperidin]-1-amine] | 81%
8 | CN(C)c1nccc(Sc2cnc(N3CCC4(CC3)Cc3ccccc3[C@H]4N)cn2)c1Cl [Example 49, (S)-1′-(5-((3-chloro-2-(dimethylamino)pyridin-4-yl)thio)pyrazin-2-yl)-1,3-dihydrospiro[indene-2,4′-piperidin]-1-amine] | 85%
9 | Nc1cccc(Sc2cnc(N3CCC4(CC3)Cc3ccccc3[C@H]4N)cn2)c1Cl [Example 50, (S)-1′-(5-((3-amino-2-chlorophenyl)thio)pyrazin-2-yl)-1,3-dihydrospiro [indene-2,4′-piperidin]-1-amine] | 77%
10 | COc1nccc(Sc2cnc(N3CCC4(CC3)Cc3ccccc3[C@H]4N)cn2)c1Cl [Example 51, (S)-1′-(5-((3-chloro-2-methoxypyridin-4-yl)thio)pyrazin-2-yl)-1,3-dihydro-spiro[indene-2,4′-piperidin]-1-amine] | 85%
11 | Nc1cccc(Sc2ncc(N3CCC4(CC3)Cc3ccccc3[C@H]4N)nc2N)c1Cl [Example 53, (S)-1′-(6-amino-5-((3-amino-2-chlorophenyl)thio)pyrazin-2-yl)-1,3-dihydro spiro[2,4′-piperidin]-1-amine] | 84%
12 | COc1nccc(Sc2ncc(N3CCC4(CC3)Cc3ccccc3[C@H]4N)nc2N)c1Cl [Example 54, (S)-1′-(6-amino-5-((3-chloro-2-methoxypyridin-4-yl)thio)pyrazin-2-yl)-1,3-dihydrospiro [indene-2,4′-piperidin]-1-amine] | 69%
13 | Nc1nc(N2CCC3(CC2)Cc2ccc(C(=O)N4CCCCC4)cc2[C@H]3N)cnc1Sc1ccnc(N)c1Cl [Example 59, (S)-(1-amino-1′-(6-amino-5-((2-amino-3-chloropyridin-4-yl)thio)pyrazin-2-yl)-1,3-dihydrospiro [indene-2,4′-piperidin]-6-yl)(piperidin-1-yl)methanone] | 69%
14 | Nc1nc(N2CCC3(CC2)Cc2ccc(N4CCOCC4)cc2[C@H]3N)cnc1Sc1ccnc(N)c1Cl [Example 60, (S)-1′-(6-amino-5-((2-amino-3-chloropyridin-4-yl)thio)pyrazin-2-yl)-6-morpholino-1,3-dihydro-spiro[indene-2,4′-piperidin]-1-amine] | 70%
15 | Nc1nc(N2CCC3(CC2)Cc2cc(F)c(F)c(F)c2[C@H]3N)cnc1Sc1ccnc(N)c1Cl [Example 61, (S)-1′-(6-amino-5-((2-amino-3-choropyridin-4-yl)thio)pyrazin-2-yl)-5,6,7-trifluoro-1,3-dihydro-spiro[indene-2,4′-piperidin]-1-amine] | 74%
16 | Nc1nc(N2CCC3(CC2)Cc2ccc(N4CCOCC4=O)cc2[C@H]3N)cnc1Sc1ccnc(N)c1Cl [Example 62, (S)-4-(1-amino-1′-(6-amino-5-((2-amino-3-chloropyridin-4-yl)thio)pyrazin-2-yl)-1,3-dihydrospiro [indene-2,4′-piperidin]-6-yl) morpholin-3-one] | 76%
17 | CS(=O)(=O)Nc1ccc2c(c1)[C@@H](N)C1(CCN(c3cnc(Sc4ccnc(N)c4Cl)c(N)n3)CC1)C2 [Example 63, (S)-N-(1-amino-1′-(6-amino-5-((2-amino-3-chloropyridin-4-yl)thio)pyrazin-2-yl)-1,3-dihydrospiro [indene-2,4′-piperidin]-6-yl)methane-sulfonamide] | 93%
18 | Nc1nc(N2CCC3(CC2)Cc2cnccc2[C@@H]3N)cnc1Sc1ccnc(N)c1Cl [Example 65, (R)-1′-(6-amino-5-((2-amino-3-chloropyridin-4-yl)thio)pyrazin-2-yl)-5,7-dihydrospiro[cyclopenta [c]pyridine-6,4′-piperidin]-5-amine] | 0%
19 | Nc1nc(N2CCC3(CC2)Cc2ccccc2[C@H]3N)cnc1Sc1ccnc(Cl)c1Cl [Example 66, (S)-1′-(6-amino-5-((2,3-dichloropyridin-4-yl)thio)pyrazin-2-yl)-1,3-dihydro-spiro[indene-2,4′-piperidin]-1-amine] | 72%
20 | Nc1nc(N2CCC3(CC2)[C@H](N)c2ccccc2[C@H]3N)cnc1Sc1ccnc(N)c1Cl [Example 67, (1R,3R)-1′-(6-amino-5-((2-amino-3-chloropyridin-4-yl)thio)pyrazin-2-yl)-1,3-dihydrospiro[indene-2,4′-piperidine]-1,3-diamine] | 63%
21 | Nc1nc(N2CCC3(CC2)Cn2c(cccc2=O)[C@H]3N)cnc1Sc1ccnc(N)c1Cl [Example 70, (S)-1-amino-1′-(6-amino-5-((2-amino-3-chloropyridin-4-yl)thio)pyrazin-2-yl)-3H-spiro[indolizine-2,4′-piperidin]-5(1H)-one] | 30%
22 | Nc1nc(N2CCC3(CC2)c2cccnc2C[C@H]3N)cnc1Sc1ccnc(N)c1Cl [Example 72, (R)-1′-(6-amino-5-((2-amino-3-chloropyridin-4-yl)thio)pyrazin-2-yl)-6,7-dihydrospiro[cyclopenta [b]pyridine-5,4′-piperidin]-6-amine] | 28%
23 | Nc1nc(N2CCC3(CC2)Cc2ncc(Cl)cc2[C@H]3N)cnc1Sc1ccnc(N)c1Cl [Example 73, (S)-1′-(6-amino-5-((2-amino-3-chloropyridin-4-yl)thio)pyrazin-2-yl)-3-chloro-5,7-dihydro-spiro[cyclopenta[b]pyridine-6,4′-piperidin]-5-amine] | 80%
24 | CSc1ccc2c(c1)[C@@H](N)C1(CCN(c3cnc(Sc4ccnc(N)c4Cl)c(N)n3)CC1)C2 [Example 74, (S)-1′-(6-amino-5-((2-amino-3-chloropyridin-4-yl)thio)pyrazin-2-yl)-6-(methylthio)-1,3-dihydro-spiro[indene-2,4′-piperidin]-1-amine] | 76%
25 | CN1CCN(c2ccc3c(c2)[C@@H](N)C2(CCN(c4cnc(Sc5ccnc(N)c5Cl)c(N)n4)CC2)C3)CC1 [Example 75, (S)-1′-(6-amino-5-((2-amino-3-chloropyridin-4-yl)thio)pyrazin-2-yl)-6-(4-methylpiperazin-1-yl)-1,3-dihydrospiro [indene-2,4′-piperidin]-1-amine] | 16%
26 | CC(=O)N1CC(F)(F)c2c(Sc3ncc(N4CCC5(CC4)Cc4ccccc4[C@H]5N)nc3N)cccc21 [Example 78, (S)-1-(4-((3-amino-5-(1-amino-1,3-dihydrospiro[indene-2,4′-piperidin]-1′-yl)pyrazin-2-yl)thio)-3,3-difluoroindolin-1-yl)ethan-1-one] | 67%
27 | CC(C)(C)c1cc2c(s1)CC1(CCN(c3cnc(Sc4ccnc(N)c4Cl)c(N)n3)CC1)[C@@H]2N [Example 79, (S)-1′-(6-amino-5-((2-amino-3-chloropyridin-4-yl)thio)pyrazin-2-yl)-2-(tert-butyl)-4,6-dihydro-spiro[cyclopenta [b]thiophene-5,4′-piperidin]-4-amine] | 58%
